According to ChEMBL document CHEMBL1201862, “PubChem BioAssay data set” (2004):
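Method: 48-hour compound exposure of cells in 96-well plates, five concentrations, linear interpolation of endpoints. GI50 marks 50% less growth.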 Activity calls are given as the source filed them. Cut-off read from the data, not from the text of the source: active = GI50 up to about 1.1 µM and inactive = higher.

Tests used:
Assay in all cases: DTP human tumour cell line panel, 48 h
SK-MEL-2 = test system: SK-MEL-2
MCF7 = test system: MCF7
SK-MEL-5 = test system: SK-MEL-5
UACC-62 = test system: UACC-62
IGROV-1 = test system: IGROV-1
MDA-N = test system: MDA-N
UO-31 = test system: UO-31
MDA-MB-435 = test system: MDA-MB-435
M14 = test system: M14
SF-268 = test system: SF-268
A498 = test system: A498
OVCAR-5 = test system: OVCAR-5
PC-3 = test system: PC-3
CAKI-1 = test system: CAKI-1
Malme-3M = test system: Malme-3M
NCI-H226 = test system: NCI-H226
RXF 393 = test system: RXF 393
K562 = test system: K562
OVCAR-8 = test system: OVCAR-8
Hs-578T = test system: Hs-578T
SN12C = test system: SN12C
SK-MEL-28 = test system: SK-MEL-28
OVCAR-4 = test system: OVCAR-4
T47D = test system: T47D
SNB-75 = test system: SNB-75
HOP-92 = test system: HOP-92
786-0 = test system: 786-0
U-251 = test system: U-251
NCI-H460 = test system: NCI-H460
DU-145 = test system: DU-145
ACHN = test system: ACHN
COLO 205 = test system: COLO 205
HCC 2998 = test system: HCC 2998
SF-295 = test system: SF-295
HT-29 = test system: HT-29
OVCAR-3 = test system: OVCAR-3
HCT-116 = test system: HCT-116
CCRF-CEM = test system: CCRF-CEM
RPMI-8226 = test system: RPMI-8226
A549 = test system: A549
SW-620 = test system: SW-620
LOX IMVI = test system: LOX IMVI
UACC-257 = test system: UACC-257
SNB-19 = test system: SNB-19
TK-10 = test system: TK-10
NCI-H23 = test system: NCI-H23
SK-OV-3 = test system: SK-OV-3
NCI/ADR-RES = test system: NCI/ADR-RES
BT-549 = test system: BT-549
HCT-15 = test system: HCT-15
HOP-62 = test system: HOP-62
KM12 = test system: KM12
NCI-H522 = test system: NCI-H522
MDA-MB-231 = test system: MDA-MB-231
EKVX = test system: EKVX
SF-539 = test system: SF-539
MOLT-4 = test system: MOLT-4
HL-60 = test system: HL-60

SMILES: O=C(c1ccc(O)c([N+](=O)[O-])c1)c1ccc(O)c([N+](=O)[O-])c1
- GI50 (SK-MEL-2): > 100 µM (inactive)
- GI50 (MCF7): 93.1 µM (inactive)
- GI50 (SK-MEL-5): > 100 µM (inactive)
- GI50 (UACC-62): 37.1 µM (inactive)
- GI50 (IGROV-1): > 100 µM (inactive)
- GI50 (MDA-N): 53.7 µM (inactive)
- GI50 (UO-31): 66.2 µM (inactive)
- GI50 (MDA-MB-435): 20.8 µM (inactive)
- GI50 (M14): > 100 µM (inactive)
- GI50 (SF-268): > 100 µM (inactive)
- GI50 (A498): > 100 µM (inactive)
- GI50 (OVCAR-5): > 100 µM (inactive)
- GI50 (PC-3): 66.5 µM (inactive)
- GI50 (CAKI-1): > 100 µM (inactive)
- GI50 (Malme-3M): 37 µM (inactive)
- GI50 (NCI-H226): > 100 µM (inactive)
- GI50 (RXF 393): > 100 µM (inactive)
- GI50 (K562): 50.1 µM (inactive)
- GI50 (OVCAR-8): > 100 µM (inactive)
- GI50 (Hs-578T): 46.3 µM (inactive)
- GI50 (SN12C): > 100 µM (inactive)
- GI50 (SK-MEL-28): 47.2 µM (inactive)
- GI50 (OVCAR-4): > 100 µM (inactive)
- GI50 (T47D): > 100 µM (inactive)
- GI50 (SNB-75): 28.7 µM (inactive)
- GI50 (HOP-92): 24 µM (inactive)
- GI50 (786-0): > 100 µM (inactive)
- GI50 (U-251): > 100 µM (inactive)
- GI50 (NCI-H460): > 100 µM (inactive)
- GI50 (DU-145): > 100 µM (inactive)
- GI50 (ACHN): > 100 µM (inactive)
- GI50 (COLO 205): > 100 µM (inactive)
- GI50 (HCC 2998): > 100 µM (inactive)
- GI50 (SF-295): 46.3 µM (inactive)
- GI50 (HT-29): > 100 µM (inactive)
- GI50 (OVCAR-3): > 100 µM (inactive)
- GI50 (HCT-116): > 100 µM (inactive)
- GI50 (CCRF-CEM): 31.9 µM (inactive)
- GI50 (RPMI-8226): 3.33 µM (inactive)
- GI50 (A549): 89.9 µM (inactive)
- GI50 (SW-620): 55.6 µM (inactive)
- GI50 (LOX IMVI): > 100 µM (inactive)
- GI50 (UACC-257): 81.7 µM (inactive)
- GI50 (SNB-19): > 100 µM (inactive)
- GI50 (TK-10): > 100 µM (inactive)
- GI50 (NCI-H23): > 100 µM (inactive)
- GI50 (SK-OV-3): > 100 µM (inactive)
- GI50 (NCI/ADR-RES): 43.6 µM (inactive)
- GI50 (BT-549): 33 µM (inactive)
- GI50 (HCT-15): > 100 µM
- GI50 (HOP-62): > 100 µM (inactive)
- GI50 (KM12): 35.2 µM (inactive)
- GI50 (NCI-H522): > 100 µM (inactive)
- GI50 (MDA-MB-231): > 100 µM (inactive)
- GI50 (EKVX): > 100 µM (inactive)
- GI50 (SF-539): 53.5 µM (inactive)

SMILES: Cc1[nH]c2ncn3ncnc3c2c1Cc1ccccc1
- GI50 (SK-MEL-2): > 100 µM (inactive)
- GI50 (MCF7): > 100 µM (inactive)
- GI50 (SK-MEL-5): > 100 µM (inactive)
- GI50 (UACC-62): > 100 µM (inactive)
- GI50 (IGROV-1): 92.7 µM (inactive)
- GI50 (MDA-N): > 100 µM (inactive)
- GI50 (UO-31): > 100 µM (inactive)
- GI50 (MDA-MB-435): > 100 µM (inactive)
- GI50 (M14): > 100 µM (inactive)
- GI50 (SF-268): > 100 µM (inactive)
- GI50 (A498): > 100 µM (inactive)
- GI50 (OVCAR-5): > 100 µM (inactive)
- GI50 (PC-3): > 100 µM (inactive)
- GI50 (CAKI-1): > 100 µM (inactive)
- GI50 (Malme-3M): > 100 µM (inactive)
- GI50 (NCI-H226): > 100 µM (inactive)
- GI50 (RXF 393): 50 µM (inactive)
- GI50 (OVCAR-8): > 100 µM (inactive)
- GI50 (Hs-578T): > 100 µM (inactive)
- GI50 (SN12C): > 100 µM (inactive)
- GI50 (SK-MEL-28): > 100 µM (inactive)
- GI50 (OVCAR-4): > 100 µM (inactive)
- GI50 (T47D): > 100 µM (inactive)
- GI50 (SNB-75): > 100 µM (inactive)
- GI50 (HOP-92): 54.1 µM (inactive)
- GI50 (786-0): > 100 µM (inactive)
- GI50 (U-251): > 100 µM (inactive)
- GI50 (MOLT-4): > 100 µM (inactive)
- GI50 (NCI-H460): > 100 µM (inactive)
- GI50 (DU-145): > 100 µM (inactive)
- GI50 (ACHN): > 100 µM (inactive)
- GI50 (COLO 205): > 100 µM (inactive)
- GI50 (HCC 2998): > 100 µM (inactive)
- GI50 (SF-295): > 100 µM (inactive)
- GI50 (HT-29): > 100 µM (inactive)
- GI50 (OVCAR-3): > 100 µM (inactive)
- GI50 (HCT-116): > 100 µM (inactive)
- GI50 (CCRF-CEM): > 100 µM (inactive)
- GI50 (A549): > 100 µM (inactive)
- GI50 (SW-620): > 100 µM (inactive)
- GI50 (UACC-257): > 100 µM (inactive)
- GI50 (SNB-19): > 100 µM (inactive)
- GI50 (HL-60): > 100 µM (inactive)
- GI50 (TK-10): > 100 µM (inactive)
- GI50 (NCI-H23): 91.6 µM (inactive)
- GI50 (SK-OV-3): > 100 µM (inactive)
- GI50 (NCI/ADR-RES): > 100 µM (inactive)
- GI50 (BT-549): > 100 µM (inactive)
- GI50 (HCT-15): > 100 µM
- GI50 (HOP-62): > 100 µM (inactive)
- GI50 (KM12): > 100 µM (inactive)
- GI50 (NCI-H522): > 100 µM (inactive)
- GI50 (MDA-MB-231): > 100 µM (inactive)
- GI50 (EKVX): > 100 µM (inactive)
- GI50 (SF-539): > 100 µM (inactive)
